The target in test [1] is T1, α2-adrenergic receptor (Rattus norvegicus, UniProt P22909).
T1 sequence (P22909 1-465): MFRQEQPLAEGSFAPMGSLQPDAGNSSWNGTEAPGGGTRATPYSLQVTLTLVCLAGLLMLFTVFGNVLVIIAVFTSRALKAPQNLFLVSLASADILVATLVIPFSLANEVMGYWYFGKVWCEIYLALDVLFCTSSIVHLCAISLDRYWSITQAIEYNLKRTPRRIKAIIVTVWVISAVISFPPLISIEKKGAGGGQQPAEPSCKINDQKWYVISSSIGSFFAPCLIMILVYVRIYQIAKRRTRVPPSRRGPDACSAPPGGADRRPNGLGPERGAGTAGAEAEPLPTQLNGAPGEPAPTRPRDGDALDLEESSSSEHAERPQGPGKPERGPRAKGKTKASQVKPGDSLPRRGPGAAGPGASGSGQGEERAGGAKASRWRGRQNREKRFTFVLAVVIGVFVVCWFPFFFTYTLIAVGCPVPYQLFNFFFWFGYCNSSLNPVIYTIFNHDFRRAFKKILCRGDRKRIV
Description: biochemical.
Description: (§3) For the determination of the non-specific binding, 10 μmoles of phentolamine were used. Investigation of the α2 -adrenergic receptor binding
(§4) Hannover Wistar rats were decapitated, their cortexes were prepared and homogenized in a 30-fold volume of a buffer solution (50 μmoles of TRIS HCl, at pH 7.4). The membrane was centrifuged at 45000 g twice for 15 minutes and then suspended in the buffer in a concentration of 50 ml/g (in a protein concentration of 0.9 to 1.0 mg/ml).
(§5) For investigating the α2 -receptor binding, a membrane preparation, a ligand (1.0 nmole of ^3 H Rx 781094=^3 H-1 dazoxane) and the compound to be tested were used in a total volume of 1 ml. After an incubation at 23° C. for 20 minutes, the samples were filtered through a Whatman GF/B filter and washed 4 times with 4 ml of buffer solution each.
(§6) For the determination of the non-specific binding, 10 μmoles of phentolamine were used.

Test [2] can be described thus: Learning-facilitating effect: one-trial passive avoidance. In kind it is in vivo, mice (CFLP). The following applies: for Facilitation of learning, avoidance latency period as % of the control: 5.0 mg/kg p.o., mice, retest after one week, control latency 164.0 ± 34.4 sec (nicergoline), 77.0 ± 16.4 sec (2-chloronicergoline). The method, then: (§1) The studies were carried out on male SHR rats weighing 160 to 180 g as well as on CFLP mice of both sexes weighing 18 to 21 g. The compounds to be tested were orally administered in a volume of 5 ml/kg of body-weight (in the case of rats) or in a volume of 10 ml/kg of body-weight (in case of mice) at the 60th minute before beginning the experiment.
(§2) The results are expressed as percentages.
Investigation of the learning-facilitating effect
[W. B. Essmann and H. Alpern: Psychol. Rep. 41, 731 (1964)]
Mice (n=10) were treated with 5 mg/kg doses of the compounds to be tested, then the animals were conditioned by the one-trial passive avoidance method. The animals were placed on the platform of the test box, whereupon after entering into the dark box, they received an electric footshock (1.5 mA, 0.3 sec). One week later, the animals were retested: the mean of the latency period of the entering (avoidance) was compared to the control value and expressed as the percentage thereof.

The next test has as its target α1-adrenergic receptor. The experiment in a line: α1-adrenergic receptor binding (3H-prazosine). Also on record: species or system Hannover Wistar rats. The following applies: for IC50 value of α-adrenergic receptor activity (in words) / α-adrenergic receptor activity compared between 2-chloronicergoline and nicergoline (in words): Table 2 discussion; for IC50: rat cortex membrane, 0.5 nmole 3H-prazosine, 23° C., 30 min, pH 8.

Test [3] is described as follows: Antagonism of the acquisition-inhibitory effect of hypoxia (shuttle box, normobaric hypoxia, 6% O2). The class given is in vivo, rats (male SHR). The following applies: for Antagonism of the acquisition-inhibitory effect of hypoxia, CAR Δ %: rats, third day, 6% O2. The protocol: as §1, §2
Antagonism of the acquisition-inhibitory effect of hypoxia
Rats (n=4) were daily treated with various doses of the compounds to be tested, then conditioned in an automatic six-channel shuttle box (VKI) for 3 days [with the following parameters: 50 cycles/day, 15 seconds intersignal period, 15 seconds light stimulus, 10 seconds light and electric footshock (0.8 mA)] under normobaric hypoxic conditions (6% O2). The values of the conditioned avoidance responses on the third day were expressed as the percentage of the deviation from the control value (CAR Δ%).

Test [4] deals with T1, α2-adrenergic receptor. The following applies: versus nicergoline.
Description: as §3, §4, §5, §6
The subject of test [5] is 45Ca2+ uptake into synaptosomes. Description: 45Ca2+ uptake into synaptosomes. The class given is biochemical. The following applies: rat brain cortex synaptosomes, K+ (45 mmoles) induced, 37° C., pre-incubation 20 min; read-out: IC50 45Ca2+ (synaptosomal uptake). The protocol:
Investigation of the ^45 Ca^2+ uptake into synaptosomes
The synaptosomal fraction was prepared from rat brain cortex according to the method of Wu et al. [J. Neurochem. 39, 700 (1982)], with a protein content of 20 mg/ml.
For the experiment, a buffer solution (112 mmoles of NaCl, 5 mmoles of KCl, 1.3 mmoles of MgCl2, 1.2 mmoles of NaH2 PO4, 1.2 mmoles of CaCl2, 10 mmoles of glucose and 20 mmoles of TRIS adjusted to pH 7 by carbogen at 37° C.) was used. The mixture containing the buffer solution, the compound to be tested and 1 mg of synaptosomes in a total volume of 1 ml was pre-incubated at 37° C. for 20 minutes and then, the K^+ (45 mmoles) induced ^45 Ca^2+ […] and, for control, the Na^+ (45 mmoles) induced ^45 Ca^2+ uptake were measured. The reaction was stopped by adding 5 ml of a buffer solution (120 mmoles of NaCl, 5 mmoles of KCl, 5 mmoles of EGTA and 20 mmoles of TRIS, at pH 7.4). […] The radioactivity remaining on the filter was determined in 10 ml of scintillation solution.

A short description of test [6]: Antihypoxic effect: survival time under hypobaric hypoxic conditions (170 mmHg). The following applies: for Antihypoxic effect, survival time as % of the control: rats, 60 min before, control 3.3 ± 0.19 min. The class given is in vivo, rats (male SHR). The method, then:
as §1, §2
Investigation of the antihypoxic effect
[I. Baumel et al.: Proc. Soc. Exp. Ther. Biol. N.Y. 132, 629 (1969]
Rats (n=5) were treated with various doses of the compounds to be tested and after 60 minutes the survival time was measured under hypobaric hypoxic conditions (170 mmHg). In the Table, the survival time is expressed as the percentage of that of the control group.

A further test has as its target T2, D-2 receptor (Rattus norvegicus, UniProt P61169).
T2 construct: the striatum from their cortex was prepared; from tissue; host or cells: striatum membranes of Hannover Wistar rats
The experiment in a line: D-2 receptor binding (3H-spiroperidol). Also on record: species or system Hannover Wistar rats. The following applies: for IC50: rat striatum, 0.5 nmole 3H-spiroperidol, 37° C., 15 min, pH 7.4. The protocol: Investigation of the D-2 receptor binding
Hannover Wistar rats were decapitated and the striatum from their cortex was prepared. The striata were homogenized in a 10-fold volume of a cold buffer solution (50 mmoles of TRIS HCl, 120 mmoles of NaCl, 2 mmoles of KCl, 1 mmole of MgCl2 and 5 mmoles of CaCl2 at pH 7.4) and centrifuged at 45000 g for 15 minutes.
For investigating the D-2 receptor binding, a membrane preparation, a buffer, a ligand (0.5 nmole of ^3 H-spiroperidol) and the compound to be tested in a defined concentration were used in a total volume of 2 ml.

A further test deals with α-adrenergic receptor. The following applies: Bernardi et al. 1975; cited from earlier work.
For test [7] the following is noted: literature; cited from earlier work.

T2 sequence (P61169 whole entry): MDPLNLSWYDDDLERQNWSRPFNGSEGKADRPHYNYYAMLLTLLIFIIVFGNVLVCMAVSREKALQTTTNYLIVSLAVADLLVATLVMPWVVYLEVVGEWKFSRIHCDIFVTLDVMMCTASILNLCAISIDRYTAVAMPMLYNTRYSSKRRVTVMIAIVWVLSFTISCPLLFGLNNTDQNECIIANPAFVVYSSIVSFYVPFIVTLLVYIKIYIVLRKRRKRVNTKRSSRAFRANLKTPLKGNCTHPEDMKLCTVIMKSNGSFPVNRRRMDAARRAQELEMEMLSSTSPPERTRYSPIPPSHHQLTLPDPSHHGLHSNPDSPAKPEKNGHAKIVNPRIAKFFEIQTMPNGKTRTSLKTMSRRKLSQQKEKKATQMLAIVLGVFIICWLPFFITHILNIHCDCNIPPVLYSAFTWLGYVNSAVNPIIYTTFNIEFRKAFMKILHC

Consider `CO[C@]12C[C@@H](COC(=O)c3cncc(Br)c3)CN(C)[C@@H]1Cc1c(Cl)n(C)c3cccc2c13` [2-Chloronicergoline, 2-chloronicergoline], for which the IC50 against α2-adrenergic receptor [1] turned out to be 24.2 nM; at α1-adrenergic receptor it was 9.5 nM; in test [5] it was 7 µM; on D-2 receptor it was 877 nM. For the same molecule, the “Facilitation of learning, avoidance latency period as % of the control” value in test [2] is listed as 182%. The “learning-facilitating effect compared with nicergoline (in words)” value in test [2] (same doses, versus nicergoline) is listed as “significantly better than that of nicergoline”. The “IC50 value of α-adrenergic receptor activity (in words)” value at α1-adrenergic receptor is listed as “low”. Moreover, the “α-adrenergic receptor activity compared between 2-chloronicergoline and nicergoline (in words)” value in the test on α1-adrenergic receptor is reported as “practically identical”. Further, the “α-adrenoceptor selectivity (in words)” value in the test on α1-adrenergic receptor (shown by D-2/α1 selectivity ratio) was “pronounced”. For the same molecule, the “Antagonism of the acquisition-inhibitory effect of hypoxia, CAR Δ %” value in test [3] (2.5 mg/kg p.o.) is on record as 150%. The “dose normalizing deteriorated performance under normobaric hypoxia, times lower than that of nicergoline” value in [3] (versus nicergoline) turned out to be 4 times. For the same molecule, the “α2-adrenoceptor activity, times as high as that of nicergoline” value on α2-adrenergic receptor [4] was “about 13 times”. Also, the “hypoxic tolerance (in words)” value in [6] (1.0 mg/kg) is on record as “significantly increased”. For the same molecule, the entries for the “Antihypoxic effect, survival time as % of the control” value in test [6] (1.0 mg/kg p.o.) and in test [6] (2.5 mg/kg p.o.) were 155% and 276%, respectively. Also, on D-2 receptor (ratio of IC50 values), the “Selectivity ratio D-2/α1” value is listed as 92.3 nmole/nmole. Moreover, at D-2 receptor (versus nicergoline), the “D-2 receptor activity, times lower than that of nicergoline” value is listed as 12 times.
For the molecule `CO[C@]12C[C@@H](COC(=O)c3cncc(Br)c3)CN(C)[C@@H]1Cc1c(Br)n(C)c3cccc2c13` [2-bromonicergoline], in the test with α-adrenergic receptor, the “α-adrenerg blocking effect (in words)” value is “α-adrenerg blocking effect”. Besides, in [7], the “vasodilatory effect (in words)” value is “vasodilatory”.
Take `CO[C@]12C[C@@H](COC(=O)c3cncc(Br)c3)CN(C)[C@@H]1Cc1cn(C)c3cccc2c13` [Nicergoline, 1,6-dimethyl-10α-methoxyergoline-8β-methanol 5-bromonicotinate]: the IC50 worked out at 176 nM against α2-adrenergic receptor [1], 5.3 nM on α1-adrenergic receptor, 26.7 µM in test [5] and 71.4 nM on D-2 receptor. Moreover, the “Facilitation of learning, avoidance latency period as % of the control” value in test [2] is listed as 131%. On α1-adrenergic receptor, the “IC50 value of α-adrenergic receptor activity (in words)” value is on record as “low”. Besides, the “α-adrenergic receptor activity compared between 2-chloronicergoline and nicergoline (in words)” value in the test on α1-adrenergic receptor was “practically identical”. The “Antagonism of the acquisition-inhibitory effect of hypoxia, CAR Δ %” value in test [3] (10.0 mg/kg p.o.) is recorded as 150%. Also, the “Antihypoxic effect, survival time as % of the control” value was 103% in test [6] (1.0 mg/kg p.o.) and 109% in test [6] (2.5 mg/kg p.o.). In addition, the “vasodilatory effect (in words)” value in [7] is “peripheral vasodilatory agent”.

Source of the values: patent US4753949A, “2-chloronicergoline having antihypoxic activity” (Richter Gedeon Vegyeszeti Gyar Rt., priority 1985, dated 1988).
